We go through 7 compounds from patent publication US5493020A, “Tricyclic inhibitors of the GPIIb IIIa receptor” (Genentech, Inc., priority 1993, dated 1996).

Read-outs that look alike come from different tables or passages of the source.

Assay [1] deals with human platelet rich plasma (platelet aggregation). Description: platelet aggregation (PA) inhibition assay in human platelet rich plasma. Type of assay: cell-based. Here is the method:
In addition to the GPIIb IIIa ELISA assay, platelet aggregation assays may be performed in human platelet rich plasma (PRP). […] The blood is centrifuged at 160×g for 10 min at 22° C. and then allowed to stand for 5 min after which the PRP is decanted. Platelet poor plasma (PPP) is isolated from the remaining blood after centrifugation at 2000×g for 25 min. The platelet count of the PRP is adjusted to ca. 300,000 per microliter with PPP.
A 225 mL aliquot of PRP plus 25 mL of either a dilution of the test sample or a control (PBS) is incubated for 5 min in a Chrono-log Whole Blood Aggregometer at 25° C. An aggregating agent (collagen, 1 mg/ml; U46619, 100 ng/ml; or ADP, 8 mM) is added and the platelet aggregation recorded.

The target in assay [2] is T1, human platelet GPIIbIIIa receptor (Homo sapiens, UniProt P05106+P08514).
T1 construct: purified human platelet GPIIbIIIa receptor; from tissue; host or cells: human platelets (purified, solubilized receptor)
T1 sequence (P08514 32-887 limits assumed): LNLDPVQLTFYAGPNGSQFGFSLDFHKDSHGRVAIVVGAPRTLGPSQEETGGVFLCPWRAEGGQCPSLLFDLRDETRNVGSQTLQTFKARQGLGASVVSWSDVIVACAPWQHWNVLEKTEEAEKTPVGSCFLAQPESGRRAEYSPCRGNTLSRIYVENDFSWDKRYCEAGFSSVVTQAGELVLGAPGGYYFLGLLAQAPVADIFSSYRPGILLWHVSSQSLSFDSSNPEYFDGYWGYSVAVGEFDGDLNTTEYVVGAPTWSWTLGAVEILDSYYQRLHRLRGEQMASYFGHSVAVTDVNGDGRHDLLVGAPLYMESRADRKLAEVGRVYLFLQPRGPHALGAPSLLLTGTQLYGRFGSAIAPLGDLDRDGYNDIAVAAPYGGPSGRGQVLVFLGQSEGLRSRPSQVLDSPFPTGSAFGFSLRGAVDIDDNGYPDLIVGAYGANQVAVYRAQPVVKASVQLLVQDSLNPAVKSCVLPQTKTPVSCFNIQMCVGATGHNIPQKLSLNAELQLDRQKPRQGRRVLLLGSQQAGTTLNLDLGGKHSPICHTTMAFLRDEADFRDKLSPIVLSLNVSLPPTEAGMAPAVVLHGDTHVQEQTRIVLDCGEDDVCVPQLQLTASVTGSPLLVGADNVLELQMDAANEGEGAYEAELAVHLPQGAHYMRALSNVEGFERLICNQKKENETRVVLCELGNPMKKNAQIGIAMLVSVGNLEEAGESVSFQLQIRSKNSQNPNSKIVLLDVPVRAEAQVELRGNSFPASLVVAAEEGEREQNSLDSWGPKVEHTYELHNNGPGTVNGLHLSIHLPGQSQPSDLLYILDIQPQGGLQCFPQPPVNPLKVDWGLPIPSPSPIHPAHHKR
T1 sequence (P08514 891-1039 limits assumed): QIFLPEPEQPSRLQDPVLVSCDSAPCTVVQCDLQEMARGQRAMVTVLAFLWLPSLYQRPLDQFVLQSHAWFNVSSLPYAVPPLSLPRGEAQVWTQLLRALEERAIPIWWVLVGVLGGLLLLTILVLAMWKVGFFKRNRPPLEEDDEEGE
T1 sequence (P05106 27-788): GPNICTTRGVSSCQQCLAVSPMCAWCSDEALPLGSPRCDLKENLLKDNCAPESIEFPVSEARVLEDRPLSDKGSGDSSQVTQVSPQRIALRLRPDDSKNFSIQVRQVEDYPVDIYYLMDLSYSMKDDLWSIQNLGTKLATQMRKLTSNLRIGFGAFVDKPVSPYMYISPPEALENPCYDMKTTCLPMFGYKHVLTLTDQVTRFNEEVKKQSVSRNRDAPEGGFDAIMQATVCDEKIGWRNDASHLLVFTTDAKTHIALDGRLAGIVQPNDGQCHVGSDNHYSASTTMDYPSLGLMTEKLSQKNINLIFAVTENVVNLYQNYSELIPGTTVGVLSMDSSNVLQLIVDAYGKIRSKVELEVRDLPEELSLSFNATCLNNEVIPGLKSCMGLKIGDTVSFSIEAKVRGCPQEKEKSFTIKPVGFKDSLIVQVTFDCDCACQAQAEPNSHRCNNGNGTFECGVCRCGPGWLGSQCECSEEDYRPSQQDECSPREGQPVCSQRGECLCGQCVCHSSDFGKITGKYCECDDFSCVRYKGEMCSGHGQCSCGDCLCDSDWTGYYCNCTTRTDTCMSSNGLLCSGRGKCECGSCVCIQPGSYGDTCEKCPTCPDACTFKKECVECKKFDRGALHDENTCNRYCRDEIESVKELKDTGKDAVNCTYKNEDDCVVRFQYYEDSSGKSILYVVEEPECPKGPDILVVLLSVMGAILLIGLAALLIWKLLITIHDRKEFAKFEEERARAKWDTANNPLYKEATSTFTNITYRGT
The assay is described as follows: modified fibrinogen-GPIIbIIIa ELISA (inhibition of fibrinogen binding to purified human platelet GPIIbIIIa receptor). Here is the method: In-vitro biological activity of the compounds of Formula I and II are monitored using a modified fibrinogen-GPIIbIIIa ELISA based on the method of Nachman and Leung (J. Clin. Invest. 69:263-269 (1982)) which measures the inhibition of fibrinogen binding to purified human platelet GPIIbIIIa receptor. Human fibrinogen is prepared by the method of Lipinska, et al. (J. Lab. Clin. Med. 84:509-516 (1974)). Platelet GPIIb IIIa is prepared by the method of Fitzgerald, et al., Anal. Biochem.,151:169-177 (1985).
Briefly, microtiter plates are coated with fibrinogen ([…]) and then blocked with TACTS buffer containing 0.5% bovine serum albumin (BSA). (TACTS buffer contains 20mM Tris.HCl, pH 7.5, 0.02% sodium azide, 2 mM calcium chloride, 0.05% Tween 20, 150 mM sodium chloride.) The plate is washed with phosphate buffered saline (PBS) containing 0.01% Tween 20 and the sample to be determined added, followed by addition of solubilized GP IIbIIIa receptor ([…]) in TACTS, 0.5% BSA. After incubation, the plate is washed and 1 mg/ml of murine anti-platelet monoclonal antibody AP3 (Newman et al., Blood 65:227-232 (1985)) is added. After another wash a goat anti-mouse IgG conjugated to horseradish peroxidase is added. A final wash is performed and developing reagent buffer (10 mg o-phenylenediamine dihydrochloride, 0.0212% hydrogen peroxide, 0.22 mM citrate, 50 mM phosphate, pH 5.0) is added and then incubated until color develops. The reaction is stopped with 1N sulfuric acid and the absorbance at 492 nm is recorded.
In general terms: ELISA stands for enzyme-linked immunosorbent assay.

In another assay the target is GPIIb IIIa. To be noted: result in words, EP 372 486 (Hoffmann La Roche); cited from earlier work.
[3] abbreviates: platelet aggregation, citrate, read-out: IC50 PA(citrate).
[4] abbreviates: platelet aggregation, heparin, read-out: IC50 PA(heparin).
The mark [5] stands for this setting: Platelet, read-out: IC50 PA(citrate).
Where [6] appears, read: ELISA, read-out: IC50 Fg/IIbIIIa.
Where [7] appears, read: Platelet, read-out: IC50 PA(heparin).

On to `N=C(N)c1ccc(COc2ccc3c(c2)C(=O)N(CCC(=O)O)Cc2nc4ccccc4c(=O)n2-3)cc1` [p-H2 N(NH)CC6 H4 CH2 O], for which the IC50 in assay [1] (setting [3]) was determined as 540 nM; in assay [1] (setting [4]), 1700 nM.
Regarding `N=C(N)c1ccc(C(=O)Nc2cccc(C(=O)NCCC(=O)O)c2)cc1` [N-[3-(4-amidinobenzamido)benzoyl]-3-aminoproprionoic acid, reference compound], the IC50 is approximately 3000 nM in assay [1] (Platelet, internal standard, measured according to the assays described herein, anticoagulant not stated, read-out: PA inhibition assay IC50) and approximately 25 nM in assay [2] (internal standard, measured according to the assays described herein, read-out: Fg/GPIIb IIIa ELISA IC50).
Regarding `N=C(N)c1ccc(C(=O)Nc2cccc(C(=O)NCCC(=O)O)c2)cc1` [drawing 2], the “IC50 in an ELISA measurement of fibrinogen GPIIb IIIa binding” value at GPIIb IIIa was “particular low IC50”.
Turning to `Cc1nnc2n1-c1ccc(OCc3ccc(C(=N)N)cc3)cc1C(=O)N(CCC(=O)O)C2` [p-H2 N(NH)CC6 H4 CH2 O], the IC50 in assay [1] (setting [3]) worked out at 5 nM; in assay [1] (setting [4]) it was 86 nM.
As for `Cc1cnc2n1-c1ccc(C#CCCCCN)cc1C(=O)N(CCC(=O)O)C2` [H2 N(CH2)4 CC], the IC50 worked out at 8290 nM in assay [1] (setting [5]) and 57 nM in assay [2] (setting [6]).
In the case of `Cc1cnc2n1-c1ccc(C#Cc3ccc(C(=N)N)cc3)cc1C(=O)N(CCC(=O)O)C2` [p-H2 N(NH)CC6 H4 CC], the IC50 in assay [1] (setting [5]) was found to be 93 nM; in assay [1] (setting [7]) it was 240 nM; in assay [2] (setting [6]), 4 nM.
Consider `Cc1cnc2n1-c1ccc(OCc3ccc(C(=N)N)cc3)cc1C(=O)N(CCC(=O)O)C2` [p-H2 N(NH)CC6 H4 CH2 O], for which the IC50 is 133 nM in assay [1] (setting [5]), 220 nM in assay [1] (setting [7]) and 9 nM in assay [2] (setting [6]).
